Earlier results on one compound are cited in patent publication US9872864B2, “Sustained release composition of prostacyclin” (priority 2011, dated 2018).

For this series the following is noted: background statement.

For the compound `CCCCC[C@H](O)CC[C@@H]1[C@H]2Cc3cccc(OCC(=O)O)c3C[C@H]2C[C@H]1O` [treprostinil], the half-life is 4 h.

The term half-life denotes the time in which the quantity being followed falls by half.
